Source: ChEMBL document CHEMBL1123341, “Thromboxane A2 synthase inhibitors. 5-(3-Pyridylmethyl)benzofuran-2-carboxylic acids” (J Med Chem, 1986)
Converted amounts (≈) assume the structure as drawn.

What was measured:
[1] = biological target: T1, Thromboxane-A synthase (Homo sapiens) (UniProt P24557); experiment: In vitro inhibition of TXA2 biosynthesis in human microsomal platelets; assay type: functional, microsomes; details: Microsome
T1 sequence (whole entry): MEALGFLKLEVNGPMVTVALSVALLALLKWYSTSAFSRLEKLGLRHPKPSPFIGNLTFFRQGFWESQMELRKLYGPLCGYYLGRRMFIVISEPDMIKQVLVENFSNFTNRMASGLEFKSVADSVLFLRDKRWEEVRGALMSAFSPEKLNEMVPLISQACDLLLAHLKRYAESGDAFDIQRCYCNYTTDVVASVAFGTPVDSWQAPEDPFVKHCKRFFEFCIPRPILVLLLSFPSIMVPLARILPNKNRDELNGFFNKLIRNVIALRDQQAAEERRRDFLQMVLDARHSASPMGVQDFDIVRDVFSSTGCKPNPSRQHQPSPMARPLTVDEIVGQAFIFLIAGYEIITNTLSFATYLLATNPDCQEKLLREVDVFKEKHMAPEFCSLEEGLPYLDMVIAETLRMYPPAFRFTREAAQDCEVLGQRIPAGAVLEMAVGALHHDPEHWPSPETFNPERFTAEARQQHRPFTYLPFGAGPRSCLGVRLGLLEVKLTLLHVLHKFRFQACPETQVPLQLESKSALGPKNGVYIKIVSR

[2] = biological target: T1, Thromboxane-A synthase (Homo sapiens); experiment: In vitro inhibition of TXA2 biosynthesis in human microsomal platelets relative to Sodium Furegrelate; assay type: functional, microsomes; details: Microsome
[3] = biological target: T1, Thromboxane-A synthase (Homo sapiens); experiment: Compound was tested in vitro for its ability to inhibit TXA2 biosynthesis in human microsomal platelets; assay type: functional, microsomes; details: Microsome
[4] = biological target: T1, Thromboxane-A synthase (Homo sapiens); experiment: Compound was tested for thromboxane synthase activity in microsomal preparations from human platelets(HPM); assay type: functional
[5] = test system: Thromboxane-A synthase (Canis lupus familiaris); experiment: Compound was tested for thromboxane synthase activity in microsomal preparations from dog lung(DLM)
[6] = test system: Thromboxane-A synthase (Cavia porcellus); experiment: Compound was tested for thromboxane synthase activity in microsomal preparations from guinea pig lung(GPLM)

ED50 [1] [µg/mL] | Relative potency [2] | also measured | SMILES
0.03 (≈ 0.106 µM) | 0.3 |  | COc1cc(Cc2cccnc2)cc2cc(C(=O)O)oc12
0.03 (≈ 0.125 µM) | 0.3 |  | O=C(O)c1cc2cc(-c3cccnc3)ccc2o1
> 10 | < 0.0001 |  | O=C(O)c1cc2cc(Cc3cnccc3Cl)ccc2o1
3 (≈ 11.2 µM) | 0.003 |  | O=C(O)c1cc2ccc(CCc3cccnc3)cc2o1
 |  | ED50 [3]: > 10 µg/mL; Relative potency [3]: < 0.001 | O=C(O)c1cc2cc(Cc3ccc(Cl)nc3)ccc2o1
0.03 (≈ 0.118 µM) | 0.3 | ED50 [4]: 0.03 µg/mL (≈ 0.118 µM); ED50 [5]: 0.003 µg/mL (≈ 0.0118 µM); ED50 [6]: 0.2 µg/mL (≈ 0.79 µM) | C/C(=C\c1ccc(Cc2cccnc2)cc1)C(=O)O
3 (≈ 11.2 µM) | 0.003 |  | O=C(c1cccnc1)c1ccc2oc(C(=O)O)cc2c1
0.03 (≈ 0.112 µM) | 0.3 |  | Cc1cc(Cc2cccnc2)cc2cc(C(=O)O)oc12
0.01 (≈ 0.0395 µM) |  | ED50 [4]: 0.01 µg/mL (≈ 0.0395 µM) | O=C(O)c1cc2cc(Cc3cccnc3)ccc2o1
 |  | ED50 [3]: 0.03 µg/mL (≈ 0.0861 µM); Relative potency [3]: 0.3 | CCCCC[C@H](O)/C=C/[C@H]1C2CC(N=N2)[C@@H]1C/C=C\CCCC(=O)O (some centres not stated)
0.03 (≈ 0.118 µM) | 0.3 |  | O=C(O)c1cc2ccc(Cc3cccnc3)cc2o1
0.3 (≈ 1.19 µM) | 0.003 |  | NC(=O)c1cc2cc(Cc3cccnc3)ccc2o1
 |  | ED50 [3]: 0.1 µg/mL (≈ 0.348 µM); Relative potency [3]: 0.1 | O=C(O)c1cc2cc(Cc3cccnc3Cl)ccc2o1
 |  | ED50 [3]: > 10 µg/mL; Relative potency [3]: < 0.001 | O=C(O)c1cc2cc(Cc3ccc[n+]([O-])c3)ccc2o1
0.03 (≈ 0.112 µM) | 0.3 |  | Cc1c(C(=O)O)oc2ccc(Cc3cccnc3)cc12
3 (≈ 11.2 µM) | 0.003 |  | O=C(O)c1cc2cc(CCc3cccnc3)ccc2o1
0.03 (≈ 0.0903 µM) | 0.3 |  | O=C(O)c1cc2cc(Cc3cccnc3)cc(Br)c2o1
